Reference: the supplement of paper PMC10627819

Columns and labels:
Experiment in all cases: Bliss interaction score (quartile over a dose matrix) (fitness difference); higher = more antagonism (negative = synergy)
S. pneumoniae D39V = system: S. pneumoniae D39V
How it was run: (§1)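 The Bliss score was calculated by subtracting the expected fitness, the product of single-drug values, from the observed fitness. OD595 at entry into stationary phase, over the plate's robust no-drug mean and capped at 1, served as the fitness readout. Single-drug values were inferred from combination data, and scores are summarised by quartiles across technical, biological and donor/recipient replicates.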

S. aureus Newman = system: S. aureus Newman
How it was run: as §1

B. subtilis 168 = system: B. subtilis 168
How it was run: as §1

S. aureus DSM 20231 = system: S. aureus DSM 20231
How it was run: as §1
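Further: first quartile when negative (synergy) and third quartile when positive (antagonism).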

Structure (SMILES)	Bliss interaction score (S. pneumoniae D39V)	Bliss interaction score (S. aureus Newman)	Bliss interaction score (B. subtilis 168)	Bliss interaction score (S. aureus DSM 20231)	Bliss interaction score (S. pneumoniae D39V; main component drawn)	Bliss interaction score (S. aureus Newman; main component drawn)	Bliss interaction score (B. subtilis 168; main component drawn)	Bliss interaction score (S. aureus DSM 20231; main component drawn)
CC1=C(C(=O)O)N2C(=O)[C@@H](NC(=O)[C@H](N)c3ccccc3)[C@H]2SC1 [Cephalexin] + C[C@H]1COc2c(N3CCN(C)CC3)c(F)cc3c(=O)c(C(=O)O)cn1c23 [Levofloxacin]	-0.152	0.0499	-0.0126	-0.037	–	–	–	–
CC1=C(C(=O)O)N2C(=O)[C@@H](NC(=O)[C@H](N)c3ccccc3)[C@H]2SC1 [Cephalexin] + C[C@H]1c2cccc(O)c2C(=O)C2=C(O)[C@]3(O)C(=O)C(C(N)=O)=C(O)[C@@H](N(C)C)[C@@H]3[C@@H](O)[C@@H]21 [Doxycycline]	0.183	0.0562	-0.0302	0.0912	–	–	–	–
CC1=C(C(=O)O)N2C(=O)[C@@H](NC(=O)[C@H](N)c3ccccc3)[C@H]2SC1 [Cephalexin] + N[C@@H]1CONC1=O [CycloserineD]	-0.117	-0.0487	-0.0367	0.0763	–	–	–	–
CC1=C(C(=O)O)N2C(=O)[C@@H](NC(=O)[C@H](N)c3ccccc3)[C@H]2SC1 [Cephalexin] + O=C(N[C@H](CO)[C@H](O)c1ccc([N+](=O)[O-])cc1)C(Cl)Cl [Chloramphenicol]	0.113	0.0789	-0.069	0.0832	–	–	–	–
CC1=C(C(=O)O)N2C(=O)[C@@H](NC(=O)[C@H](N)c3ccccc3)[C@H]2SC1 [Cephalexin] + O=C(O)[C@H]1/C(=C/CO)O[C@@H]2CC(=O)N21 [Clavulanic]	-0.14	-0.0674	-0.0461	0.0895	–	–	–	–
CC1=C(C(=O)O)N2C(=O)[C@@H](NC(=O)[C@H](N)c3ccccc3)[C@H]2SC1 [Cephalexin] + O=C(O)c1cn(C2CC2)c2cc(N3CCNCC3)c(F)cc2c1=O [Ciprofloxacin]	-0.138	0.067	-0.084	0.0694	–	–	–	–
CC1=C(C(=O)O)N2C(=O)[C@@H](NC(=O)[C@H](N)c3ccccc3)[C@H]2SC1 [Cephalexin] + O=C(O[C@@H]1Cc2c(O)cc(O)cc2O[C@@H]1c1cc(O)c(O)c(O)c1)c1cc(O)c(O)c(O)c1 [EGCG]	0.0582	-0.115	-0.0668	-0.071	–	–	–	–
CC1=C(C(=O)O)N2C(=O)[C@@H](NC(=O)[C@H](N)c3ccccc3)[C@H]2SC1 [Cephalexin] + Oc1cc(Cl)ccc1Oc1ccc(Cl)cc1Cl [Triclosan]	0.0582	0.024	0.0637	0.0867	–	–	–	–
O=C(O)[C@H]1/C(=C/CO)O[C@@H]2CC(=O)N21 [Clavulanic] + CC1(C)S[C@@H]2[C@H](NC(=O)Cc3ccccc3)C(=O)N2[C@H]1C(=O)O [PenicillinG]	0.0529	-0.128	-0.351	-0.147	–	–	–	–
O=C(O)[C@H]1/C(=C/CO)O[C@@H]2CC(=O)N21 [Clavulanic] + CC1=C\[C@@H](O)CC(=O)Cc2nc(co2)C(=O)N2CCC=C2C(=O)O[C@H](C(C)C)[C@H](C)/C=C/C(=O)NC\C=C\1 [Virginiamycin M1]	0.0495	-0.0599	0.0376	0.0872	–	–	–	–
O=C(O)[C@H]1/C(=C/CO)O[C@@H]2CC(=O)N21 [Clavulanic] + CC(=O)NC[C@H]1CN(c2ccc(N3CCOCC3)c(F)c2)C(=O)O1 [Linezolid]	-0.1	0.242	0.0747	-0.196	–	–	–	–
O=C(O)[C@H]1/C(=C/CO)O[C@@H]2CC(=O)N21 [Clavulanic] + CC(=O)O[C@H]1C[C@@]2(C)[C@@H](C[C@@H](O)[C@H]3[C@@]4(C)CC[C@@H](O)[C@@H](C)[C@@H]4CC[C@@]32C)/C1=C(\CCC=C(C)C)C(=O)O [Fusidic acid]	-0.0441	0.209	-0.0604	-0.265	–	–	–	–
O=C(O)[C@H]1/C(=C/CO)O[C@@H]2CC(=O)N21 [Clavulanic] + CC(C1CCC(C(O1)OC2C(CC(C(C2O)OC3C(C(C(CO3)(C)O)NC)O)N)N)N)NC [Gentamicin]	–	–	–	–	0.0396	0.288	0.105	-0.273
O=C(O)[C@H]1/C(=C/CO)O[C@@H]2CC(=O)N21 [Clavulanic] + CCC(C)C1C(=O)NC(=C)C(=O)NC(C(=O)NC(CSCC(C(=O)N1)NC(=O)/C(=C/C)/NC(=O)C(C(C)CC)N)C(=O)NC2C(SCC(NC(=O)CNC(=O)C3CCCN3C2=O)C(=O)NC(CCCCN)C(=O)NC4C(SCC(NC(=O)CNC(=O)C(NC(=O)C(NC(=O)C(NC(=O)CNC4=O)C)CC(C)C)CCSC)C(=O)NC(CC(=O)N)C(=O)NC(CCSC)C(=O)NC(CCCCN)C(=O)NC5C(SCC6C(=O)NC(C(=O)NC(CSC(C(C(=O)N6)NC(=O)C(NC5=O)C)C)C(=O)NC(CO)C(=O)NC(C(C)CC)C(=O)NC(CC7=CN=CN7)C(=O)NC(C(C)C)C(=O)NC(=C)C(=O)NC(CCCCN)C(=O)O)CC8=CN=CN8)C)C)C)CC(C)C [Nisin]	–	–	–	–	-0.0543	0.255	-0.0543	0.105
O=C(O)[C@H]1/C(=C/CO)O[C@@H]2CC(=O)N21 [Clavulanic] + CCCCCCCCCC(=O)N[C@@H]1[C@H]([C@@H]([C@H](O[C@H]1OC2=C3C=C4C=C2OC5=C(C=C(C=C5)[C@H]([C@H]6C(=O)N[C@@H](C7=C(C(=CC(=C7)O)OC8[C@H]([C@H]([C@@H]([C@H](O8)CO)O)O)O)C9=C(C=CC(=C9)[C@H](C(=O)N6)NC(=O)[C@@H]4NC(=O)[C@@H]1C2=CC(=CC(=C2)OC2=C(C=CC(=C2)[C@H](C(=O)N[C@H](CC2=CC(=C(O3)C=C2)Cl)C(=O)N1)N)O)O)O)C(=O)O)O[C@H]1[C@@H]([C@H]([C@@H]([C@H](O1)CO)O)O)NC(=O)C)Cl)CO)O)O [Teicoplanin]	–	–	–	–	-0.0601	-0.059	-0.178	0.119
O=C(O)[C@H]1/C(=C/CO)O[C@@H]2CC(=O)N21 [Clavulanic] + CCC[C@@H]1C[C@@H](C(=O)N[C@@H]([C@H]2O[C@H](SC)[C@H](O)[C@@H](O)[C@H]2O)[C@@H](C)O)N(C)C1 [Lincomycin]	0.0627	0.132	-0.0568	-0.194	–	–	–	–
O=C(O)[C@H]1/C(=C/CO)O[C@@H]2CC(=O)N21 [Clavulanic] + CCC[C@@H]1C[C@@H](C(=O)N[C@@H]([C@H]2O[C@H](SC)[C@H](O)[C@@H](O)[C@H]2O)[C@H](C)Cl)N(C)C1 [Clindamycin]	-0.0802	0.188	-0.0975	-0.148	–	–	–	–

Structure (SMILES)	Bliss interaction score (S. pneumoniae D39V)	Bliss interaction score (S. aureus Newman)	Bliss interaction score (B. subtilis 168)	Bliss interaction score (S. aureus DSM 20231)	Bliss interaction score (S. pneumoniae D39V; main component drawn)	Bliss interaction score (S. aureus Newman; main component drawn)	Bliss interaction score (B. subtilis 168; main component drawn)	Bliss interaction score (S. aureus DSM 20231; main component drawn)
O=C(O)[C@H]1/C(=C/CO)O[C@@H]2CC(=O)N21 [Clavulanic] + CCN(CC)CCOC(=O)c1ccc(N)cc1 [Procaine]	0.0863	-0.0729	-0.0363	0.0977	–	–	–	–
O=C(O)[C@H]1/C(=C/CO)O[C@@H]2CC(=O)N21 [Clavulanic] + CC[C@H]1OC(=O)[C@H](C)C(=O)[C@H](C)[C@@H](O[C@@H]2O[C@H](C)C[C@H](N(C)C)[C@H]2O)[C@](C)(OC)C[C@@H](C)C(=O)[C@H](C)[C@H]2N(CCCCn3cnc(-c4cccnc4)c3)C(=O)O[C@]12C [Telithromycin]	-0.0431	0.122	0.0437	-0.0742	–	–	–	–
O=C(O)[C@H]1/C(=C/CO)O[C@@H]2CC(=O)N21 [Clavulanic] + CC[C@H]1OC(=O)[C@H](C)[C@@H](O[C@H]2C[C@@](C)(OC)[C@@H](O)[C@H](C)O2)[C@H](C)[C@@H](O[C@@H]2O[C@H](C)C[C@H](N(C)C)[C@H]2O)[C@](C)(O)C[C@@H](C)C(=O)[C@H](C)[C@@H](O)[C@]1(C)O [Erythromycin]	-0.0371	0.237	0.0508	-0.151	–	–	–	–
O=C(O)[C@H]1/C(=C/CO)O[C@@H]2CC(=O)N21 [Clavulanic] + CN1C2=CC=CC=C2N=C3C1=CC=CC3=O [Pyocyanin]	0.0705	0.0849	0.0338	-0.0632	–	–	–	–
O=C(O)[C@H]1/C(=C/CO)O[C@@H]2CC(=O)N21 [Clavulanic] + CN(C)C(=O)C(CCN1CCC(O)(c2ccc(Cl)cc2)CC1)(c1ccccc1)c1ccccc1 [Loperamide]	0.0637	0.209	0.389	-0.361	–	–	–	–
O=C(O)[C@H]1/C(=C/CO)O[C@@H]2CC(=O)N21 [Clavulanic] + CN(C)[C@@H]1C(O)=C(C(N)=O)C(=O)[C@@]2(O)C(O)=C3C(=O)c4c(O)ccc(Cl)c4[C@@](C)(O)[C@H]3C[C@@H]12 [Clortetracycline]	-0.0427	0.161	0.0785	-0.24	–	–	–	–
O=C(O)[C@H]1/C(=C/CO)O[C@@H]2CC(=O)N21 [Clavulanic] + CN(C)c1cc(NC(=O)CNC(C)(C)C)c(O)c2c1C[C@H]1C[C@H]3[C@H](N(C)C)C(O)=C(C(N)=O)C(=O)[C@@]3(O)C(O)=C1C2=O [Tigecycline]	0.0386	-0.0659	0.0342	0.0703	–	–	–	–
O=C(O)[C@H]1/C(=C/CO)O[C@@H]2CC(=O)N21 [Clavulanic] + CN(N=O)C(=O)N[C@@H](C=O)[C@@H](O)[C@H](O)[C@H](O)CO [Streptozotocin]	0.059	0.197	-0.0541	-0.0853	–	–	–	–
O=C(O)[C@H]1/C(=C/CO)O[C@@H]2CC(=O)N21 [Clavulanic] + CN[C@@H]1[C@H](O)[C@H](NC)[C@H]2O[C@@]3(O)C(=O)C[C@@H](C)O[C@H]3O[C@@H]2[C@H]1O [Spectinomycin]	-0.0465	0.104	0.0479	0.137	–	–	–	–
O=C(O)[C@H]1/C(=C/CO)O[C@@H]2CC(=O)N21 [Clavulanic] + CN[C@H](CC(C)C)C(=O)N[C@H]1C(=O)N[C@@H](CC(N)=O)C(=O)N[C@H]2C(=O)N[C@H]3C(=O)N[C@H](C(=O)N[C@H](C(=O)O)c4cc(O)cc(O)c4-c4cc3ccc4O)[C@H](O)c3ccc(c(Cl)c3)Oc3cc2cc(c3O[C@@H]2O[C@H](CO)[C@@H](O)[C@H](O)[C@H]2O[C@H]2C[C@](C)(N)[C@H](O)[C@H](C)O2)Oc2ccc(cc2Cl)[C@H]1O [Vancomycin]	-0.0704	-0.0409	-0.136	0.0812	–	–	–	–
O=C(O)[C@H]1/C(=C/CO)O[C@@H]2CC(=O)N21 [Clavulanic] + CN[C@H](CC(C)C)C(=O)N[C@H]1C(=O)N[C@@H](CC(N)=O)C(=O)N[C@H]2C(=O)N[C@H]3C(=O)N[C@H](C(=O)N[C@H](C(=O)O)c4cc(O)cc(O)c4-c4cc3ccc4O)[C@H](O[C@H]3C[C@](C)(N)[C@@H](O)[C@H](C)O3)c3ccc(c(Cl)c3)Oc3cc2cc(c3O[C@@H]2O[C@H](CO)[C@@H](O)[C@H](O)[C@H]2O[C@H]2C[C@](C)(NCc3ccc(-c4ccc(Cl)cc4)cc3)[C@@H](O)[C@H](C)O2)Oc2ccc(cc2Cl)[C@H]1O [Oritavancin]	0.0545	0.197	-0.0388	0.0726	–	–	–	–
O=C(O)[C@H]1/C(=C/CO)O[C@@H]2CC(=O)N21 [Clavulanic] + CO[C@@H]1[C@@H](OC(N)=O)[C@@H](O)[C@H](Oc2ccc3c(O)c(NC(=O)c4ccc(O)c(CC=C(C)C)c4)c(=O)oc3c2C)OC1(C)C [Novobiocin]	-0.0784	0.177	0.0384	0.116	–	–	–	–
O=C(O)[C@H]1/C(=C/CO)O[C@@H]2CC(=O)N21 [Clavulanic] + CO[C@@]12[C@H](COC(N)=O)C3=C(C(=O)C(C)=C(N)C3=O)N1C[C@@H]1N[C@@H]12 [MitomycinC]	-0.0718	0.129	-0.113	-0.0996	–	–	–	–
O=C(O)[C@H]1/C(=C/CO)O[C@@H]2CC(=O)N21 [Clavulanic] + CO[C@H]1/C=C/O[C@@]2(C)Oc3c(C)c(O)c4c(O)c(c(/C=N/N5CCN(C)CC5)c(O)c4c3C2=O)NC(=O)/C(C)=C\C=C\[C@H](C)[C@H](O)[C@@H](C)[C@@H](O)[C@@H](C)[C@H](OC(C)=O)[C@@H]1C [Rifampicin]	-0.0766	-0.0368	0.0612	0.112	–	–	–	–
O=C(O)[C@H]1/C(=C/CO)O[C@@H]2CC(=O)N21 [Clavulanic] + COc1c(N2C[C@@H]3CCCN[C@@H]3C2)c(F)cc2c(=O)c(C(=O)O)cn(C3CC3)c12 [Moxifloxacin]	0.062	0.218	-0.0241	-0.0739	–	–	–	–
O=C(O)[C@H]1/C(=C/CO)O[C@@H]2CC(=O)N21 [Clavulanic] + COc1cc(Cc2cnc(N)nc2N)cc(OC)c1OC [Trimethoprim]	0.116	0.221	0.101	-0.186	–	–	–	–
